Test results from patent EP4603105A1, “PHARMACEUTICAL COMPOSITION CONTAINING CYCLIC COMPOUND HAVING SELECTIVE KRAS INHIBITORY EFFECT AGAINST HRAS AND NRAS” (CHUGAI SEIYAKU KABUSHIKI KAISHA, priority 2022, dated 2024).
Read-outs that look alike come from different tables or passages of the source.

Legend:
[1] = biological target: GDP-bound KRAS wild-type protein (Homo sapiens, UniProt P01116); assay: Binding to KRAS by surface plasmon resonance (SPR), dissociation constant KD
Procedure, shortened: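 GDP-loaded biotinylated Avi-tag RAS proteins (E. coli-expressed) captured on a Biotin CAPture chip at ~100–300 RU; single-cycle kinetics at 30°C, 100 µL/min, 75 s injections of rising compound concentrations. HBS pH 7.4 running buffer with 1 mM DTT, 10 mM MgCl2, 10 µM GDP, 4% DMSO. KD from 1:1 binding fit.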

[2] = biological target: GDP-bound NRAS wild-type protein (Homo sapiens, UniProt P01111); assay: Binding to NRAS by surface plasmon resonance (SPR), KD and KD ratio to KRAS
Chain of GDP-bound NRAS wild-type protein (P01111 whole entry): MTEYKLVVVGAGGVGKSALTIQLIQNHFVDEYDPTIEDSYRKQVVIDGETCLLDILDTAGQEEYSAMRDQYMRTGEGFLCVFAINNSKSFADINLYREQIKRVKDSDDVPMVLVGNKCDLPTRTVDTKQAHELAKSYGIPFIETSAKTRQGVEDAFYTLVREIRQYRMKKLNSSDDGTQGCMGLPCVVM
Procedure, shortened: (§1)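 Each cycle, GDP-bound biotin-Avi RAS was captured (~100–300 RU), compound concentrations were injected low to high for 75 s each at 100 µL/min, then the chip was regenerated. Buffer: HBS pH 7.4, 10 mM MgCl2, 10 µM GDP, 1 mM DTT, 4% DMSO; 30°C. KD from a 1:1 binding model.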

HRAS wild-type protein = HRAS wild-type protein (Homo sapiens, UniProt P01112); assay: Binding to HRAS by surface plasmon resonance (SPR), KD and KD ratio to KRAS
Chain of HRAS wild-type protein (P01112 whole entry): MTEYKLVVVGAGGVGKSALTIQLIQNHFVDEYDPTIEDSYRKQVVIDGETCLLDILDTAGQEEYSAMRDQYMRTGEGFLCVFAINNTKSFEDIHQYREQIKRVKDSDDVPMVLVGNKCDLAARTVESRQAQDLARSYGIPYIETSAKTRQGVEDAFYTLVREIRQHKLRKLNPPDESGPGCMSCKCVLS
Procedure, shortened: as §1

[3] = test system: human lung cancer strain NCI-H441; assay: NCI-H441 cell proliferation inhibitory activity (CellTiter-Glo, 4 days); assay type: cell-based; conditions: read-out: NCl-H441 IC50
Procedure, shortened: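 Signal came from […] measured per well once the reagent was added. Beforehand, cells were cultured at 37°C and 5% carbon dioxide on a compound series serially diluted in dimethyl sulfoxide.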

[4] = ratio of KD for GDP-bound NRAS wild-type protein to KD for KRAS
[5] = ratio of KD for HRAS wild-type protein to KD for KRAS
[6] = Single Cycle Kinetics, 1:1 binding model
[7] = ratio of KD with respect to GDP-bound NRAS wild-type protein to KD with respect to KRAS
[8] = ratio of KD with respect to HRAS wild-type protein to KD with respect to KRAS
[9] = 50% proliferation inhibitory concentration, four days

Chain of GDP-bound KRAS wild-type protein (P01116 1-188 isoform P01116-2): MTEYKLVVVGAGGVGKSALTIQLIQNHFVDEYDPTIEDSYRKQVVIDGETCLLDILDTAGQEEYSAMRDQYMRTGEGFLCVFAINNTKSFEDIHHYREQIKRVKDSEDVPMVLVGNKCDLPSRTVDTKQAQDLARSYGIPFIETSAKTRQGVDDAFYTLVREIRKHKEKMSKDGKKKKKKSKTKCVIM

Row | Compound | Kd ([1]; Single Cycle Kinetics) [nM] | NRAS /KRAS [2, 4] | HRAS /KRAS (HRAS wild-type protein; [5]) | IC50 ([3]; NCI-H441 cells, 4 days) [nM] | Kd ([1]; 1:1 binding model) [nM] | Kd [1, 6] [nM] | NRAS /KRAS [2, 7] | HRAS /KRAS (HRAS wild-type protein; [8]) | IC50 [3, 9] [nM]
1 | CCCO[C@@H]1C[C@H]2C(=O)NC3(CC(C)(C)C3)C(=O)N(C)[C@@H](C3CCCC3)C(=O)N(C)[C@H](C(=O)N(C)CC)CC(=O)N[C@@H](COCC)C(=O)N[C@@H]([C@@H](C)CC)C(=O)N(C3CC3)CC(=O)N(C)[C@H]3C/C=C\CCN(C3=O)[C@@H](Cc3ccc(C)cc3)C(=O)N(C)CC(=O)N[C@@H](CCc3ccc(C(F)(F)F)c(Cl)c3)C(=O)N2C1 [PP3429] | 2.5 | A (a compound having 10 or more and less than 20 is denoted as A) | A (a compound having 10 or more and less than 20 is denoted as A) | 78.6 | – | – | – | – | –
2 | CCO[C@@H]1C[C@H]2C(=O)NC3(CC(C)(C)C3)C(=O)N(C)[C@@H](C3CCCC3)C(=O)N(C)[C@H](C(=O)N(C)CC)CC(=O)N(C)[C@@H]([C@H](C)OC)C(=O)N[C@@H]([C@@H](C)CC)C(=O)N(C3CC3)CC(=O)N(C)[C@H]3C/C=C\CCN(C3=O)[C@@H](Cc3ccc(C(F)(F)F)cc3)C(=O)N(C)CC(=O)N[C@@H](CCc3ccc(C(F)(F)F)c(OC)c3)C(=O)N2C1 [PP3219] | 0.53 | A (a compound having 10 or more and less than 20 is denoted as A) | A (a compound having 10 or more and less than 20 is denoted as A) | 19.6 | – | – | – | – | –
3 | C=C(C)C[C@H]1C(=O)N(C)[C@H](C(=O)N(C)C)CC(=O)N(C)[C@@H](CCC)C(=O)N[C@@H]([C@@H](C)CC)C(=O)N(C)CC(=O)N(C)[C@H]2C/C=C\CCN(C2=O)[C@@H](Cc2ccc(C(F)(F)F)cc2)C(=O)N(C)CC(=O)N[C@@H](CCc2ccc(C(F)(F)F)c(OC)c2)C(=O)N2C[C@H](OCC)C[C@H]2C(=O)N(C)C2(CCC2)C(=O)N1C [PP3332] | 0.86 | A (a compound having 10 or more and less than 20 is denoted as A) | B (a compound having 3 or more and less than 10 is denoted as B) | 29.3 | – | – | – | – | –
4 | CCOC[C@H]1C(=O)N[C@@H]([C@@H](C)CC)C(=O)N(C)CC(=O)N(C)[C@H]2C/C=C\CCN(C2=O)[C@@H](Cc2ccc(C)cc2)C(=O)N(C)CC(=O)N[C@@H](CCc2cc(F)c(C(F)(F)F)c(F)c2)C(=O)N2C[C@H](OCC)C[C@H]2C(=O)NC2(CC(C)(C)C2)C(=O)N(C)[C@@H](C2CCCC2)C(=O)N(C)[C@H](C(=O)N(C)C)CC(=O)N1C [PP2397] | – | A (a compound having 10 or more and less than 20 is denoted as A) | A (a compound having 10 or more and less than 20 is denoted as A) | 4.7 | 0.051 | – | – | – | –
5 | C=C(C)C[C@H]1C(=O)N(C)[C@H](C(=O)N(C)C)CC(=O)N(C)[C@@H](CCC)C(=O)N[C@@H]([C@@H](C)CC)C(=O)N2CCC[C@H]2C(=O)N(C)[C@H]2C/C=C\CCN(C2=O)[C@@H](Cc2ccc(C(F)(F)F)cc2)C(=O)N(C)CC(=O)N[C@@H](CCc2cc(F)c(C(F)(F)F)c(F)c2)C(=O)N2C[C@H](OCC)C[C@H]2C(=O)N(C)C2(CCC2)C(=O)N1C [PP3339] | 3.6 | A (a compound having 10 or more and less than 20 is denoted as A) | A (a compound having 10 or more and less than 20 is denoted as A) | 104 | – | – | – | – | –
6 | CCO[C@@H]1C[C@H]2C(=O)NC3(CCC3)C(=O)N(C)[C@@H](C3CCCC3)C(=O)N(C)[C@H](C(=O)N(C)C)CC(=O)N(C)[C@@H](CC(C)C)C(=O)N[C@@H]([C@@H](C)CC)C(=O)N(C)CC(=O)N(C)[C@H]3C/C=C\CCN(C3=O)[C@@H](Cc3ccc(F)cc3)C(=O)N(C)CC(=O)N[C@@H](CCc3ccc(Cl)c(Cl)c3)C(=O)N2C1 [PP1482] | – | – | – | – | – | 0.45 | A (a compound having 10 or more and less than 20 is denoted as A) | B (a compound having 3 or more and less than 10 is denoted as B) | 76.4
7 | CCCO[C@@H]1C[C@H]2C(=O)NC3(CC(C)(C)C3)C(=O)N(C)[C@@H](C3CCCC3)C(=O)N(C)[C@H](C(=O)N(C)CC)CC(=O)N(C)[C@@H](COCC)C(=O)N[C@@H]([C@@H](C)CC)C(=O)N3C[C@@H](F)C[C@H]3C(=O)N(C)[C@H]3C/C=C\CCN(C3=O)[C@@H](Cc3ccc(C)cc3)C(=O)N(C)CC(=O)N[C@@H](CCc3ccc(C(F)(F)F)c(OC)c3)C(=O)N2C1 [PP3469] | 0.56 | A (a compound having 10 or more and less than 20 is denoted as A) | A (a compound having 10 or more and less than 20 is denoted as A) | 24.2 | – | – | – | – | –
8 | CCC(CC)[C@H]1C(=O)N(C)[C@H](C(=O)N(C)C)CC(=O)N(C)[C@@H](CC2CC2)C(=O)N[C@@H]([C@H](C)CC)C(=O)NCC(=O)N(C)[C@H]2C/C=C\CCN(C2=O)[C@@H](Cc2ccc(C(F)F)cc2)C(=O)N(C)CC(=O)N[C@@H](CCc2ccc(Cl)c(C(F)(F)F)c2)C(=O)N2C[C@H](OC(C)C)C[C@H]2C(=O)N(C)C2(CC(C)(C)C2)C(=O)N1C [PP3508] | 5.4 | A (a compound having 10 or more and less than 20 is denoted as A) | A (a compound having 10 or more and less than 20 is denoted as A) | 57.2 | – | – | – | – | –
9 | CCO[C@@H]1C[C@H]2C(=O)NC3(CCCC3)C(=O)N(C)[C@@H](C3CCCC3)C(=O)N(C)[C@H](C(=O)N3CCOCC3)CC(=O)N(C)[C@@H](CC)C(=O)N[C@@H]([C@@H](C)CC)C(=O)N(C)CC(=O)N(C)[C@H]3CC[C@@H](C)CN(C3=O)[C@@H](Cc3ccc(C(F)(F)F)cc3)C(=O)N(C)CC(=O)N[C@@H](CCc3ccc(C(F)(F)F)c(Cl)c3)C(=O)N2C1 [PP1377] | – | – | – | – | – | 0.087 | B (a compound having 3 or more and less than 10 is denoted as B) | B (a compound having 3 or more and less than 10 is denoted as B) | 5.8
10 | CCC[C@H]1C(=O)N[C@@H]([C@@H](C)CC)C(=O)N2CCC[C@H]2C(=O)N(C)[C@H]2C/C=C\CCN(C2=O)[C@@H](Cc2ccc(C)cc2)C(=O)N(C)CC(=O)N[C@@H](CCc2ccc(C(F)(F)F)c(OC)c2)C(=O)N2C[C@H](OCC)C[C@H]2C(=O)OC2(CCC2)C(=O)N(C)[C@@H](C2CCCC2)C(=O)N(C)[C@H](C(=O)N(C)C)CC(=O)N1C [PP3386] | 0.66 | A (a compound having 10 or more and less than 20 is denoted as A) | B (a compound having 3 or more and less than 10 is denoted as B) | 10.6 | – | – | – | – | –
11 | CCCOC[C@H]1C(=O)N[C@@H]([C@@H](C)CC)C(=O)N(C2CC2)CC(=O)N(C)[C@H]2C/C=C\CCN(C2=O)[C@@H](CC2CCC(F)(F)CC2)C(=O)N(C)CC(=O)N[C@@H](CCc2ccc(C(F)(F)F)c(OC)c2)C(=O)N2C[C@@H](C)C[C@H]2C(=O)N(C)C2(CCC2)C(=O)N(C)[C@@H](C2CCCC2)C(=O)N(C)[C@H](C(=O)N(C)C)CC(=O)N1C [PP2379] | – | A (a compound having 10 or more and less than 20 is denoted as A) | A (a compound having 10 or more and less than 20 is denoted as A) | 2.2 | 0.76 | – | – | – | –
12 | CCC[C@H]1C(=O)N[C@@H]([C@@H](C)CC)C(=O)N2CCC[C@H]2C(=O)N(C)[C@H]2C/C=C\CCN(C2=O)[C@@H](Cc2ccc(C(F)(F)F)cc2)C(=O)N(C)CC(=O)N[C@@H](CCc2cc(F)c(C(F)(F)F)c(F)c2)C(=O)N2CC[C@H](OC)[C@H]2C(=O)N(C)C2(CCC2)C(=O)N(C)[C@@H](C2CCCC2)C(=O)N(C)[C@H](C(=O)N(C)C)CC(=O)N1C [PP3283] | 0.26 | A (a compound having 10 or more and less than 20 is denoted as A) | A (a compound having 10 or more and less than 20 is denoted as A) | 7.5 | – | – | – | – | –
13 | CCCN(C)C(=O)[C@@H]1CC(=O)N(C)[C@@H](CC(C)C)C(=O)N[C@@H]([C@@H](C)CC)C(=O)N2CCC[C@H]2C(=O)N(C)[C@H]2C/C=C\CCN(C2=O)[C@@H](Cc2ccc(C(F)(F)F)cc2)C(=O)N(C)CC(=O)N[C@@H](CCc2cc(F)c(C(F)(F)F)c(F)c2)C(=O)N2C[C@H](OCC)C[C@H]2C(=O)N[C@]2(C[C@@H](OC)C2)C(=O)N(C)[C@@H](C2CCCC2)C(=O)N1C [PP3354] | 1.4 | A (a compound having 10 or more and less than 20 is denoted as A) | A (a compound having 10 or more and less than 20 is denoted as A) | 58.5 | – | – | – | – | –
14 | CCO[C@@H]1C[C@H]2C(=O)NC3(CCCC3)C(=O)N(C)[C@@H](C(CC)CC)C(=O)N(C)[C@H](C(=O)N3CCCC3)CC(=O)N(C)[C@@H](COC)C(=O)N[C@@H]([C@@H](C)CC)C(=O)N(C)CC(=O)N(C)[C@H]3C/C=C\CCN(C3=O)[C@@H](CC3CCC(F)(F)CC3)C(=O)N(C)CC(=O)N[C@@H](CCc3cc(F)c(C(F)(F)F)c(F)c3)C(=O)N2C1 [PP1441] | – | – | – | – | – | 0.7 | A (a compound having 10 or more and less than 20 is denoted as A) | A (a compound having 10 or more and less than 20 is denoted as A) | 87.6
